This note sets out measurements from ChEMBL document CHEMBL6078713, “Synthesis and mechanistic studies of 4-aminoquinoline-Isatin molecular hybrids and Schiff's bases as promising antimicrobial agents” (Eur J Med Chem, 2025).

The test system of test [1] is Staphylococcus aureus. The experiment in a line: Antibacterial activity against Staphylococcus aureus MTCC 902 assessed as diameter of zone of inhibition at 500 ug/ml by agar disk diffusion method. It is filed as functional. Particulars: read-out: DIZ.
Test [2] concerns Bacillus subtilis. Put plainly: Antibacterial activity against Bacillus subtilis MTCC 736 assessed as diameter of zone of inhibition at 500 ug/ml by agar disk diffusion method. It is filed as functional. Particulars: read-out: DIZ. (Agar diffusion results depend on both activity and mobility in agar.)
Test [3] concerns Escherichia coli. The experiment in a line: Antibacterial activity against Escherichia coli MTCC 443 assessed as diameter of zone of inhibition at 500 ug/ml by agar disk diffusion method. Particulars: read-out: DIZ. It is filed as functional.
For test [4], the system named is Pseudomonas aeruginosa. The experiment in a line: Antibacterial activity against Pseudomonas aeruginosa MTCC 2453 assessed as diameter of zone of inhibition at 500 ug/ml by agar disk diffusion method. It is filed as functional. As to conditions: read-out: DIZ.
Test [5] deals with Enterococcus faecalis. The experiment in a line: Antibacterial activity against Enterococcus faecalis MTCC 439 assessed as diameter of zone of inhibition at 500 ug/ml by agar disk diffusion method. It is filed as functional. Particulars: read-out: DIZ.
Test [6] relates to Salmonella typhi. The experiment in a line: Antibacterial activity against Salmonella typhi assessed as diameter of zone of inhibition at 500 ug/ml by agar disk diffusion method. It is filed as functional, Salmonella enterica subsp. enterica serovar Typhi. Particulars: Salmonella enterica, read-out: DIZ.
Test [7] concerns Pseudomonas aeruginosa. Put plainly: Bactericidal activity against Pseudomonas aeruginosa MTCC 2453 assessed as inhibition of bacterial growth incubated overnight. It is filed as functional.
Test [8] concerns Enterococcus faecalis. Put plainly: Antibacterial activity against Enterococcus faecalis MTCC 439 assessed as inhibition of bacterial growth incubated overnight by serial dilution based spectrophotometer. It is filed as functional.
Test [9] has as its system Bacillus subtilis. Put plainly: Bactericidal activity against Bacillus subtilis MTCC 736 assessed as inhibition of bacterial growth incubated overnight. It is filed as functional.
Test [10] deals with Salmonella typhi. Put plainly: Antibacterial activity against Salmonella typhi assessed as inhibition of bacterial growth incubated overnight by serial dilution based spectrophotometer. It is filed as functional, Salmonella enterica subsp. enterica serovar Typhi. Particulars: Salmonella enterica.
Test [11] relates to Pseudomonas aeruginosa. Put plainly: Antibacterial activity against Pseudomonas aeruginosa MTCC 2453 assessed as inhibition of bacterial growth incubated overnight by serial dilution based spectrophotometer. It is filed as functional.
For test [12], the system named is Escherichia coli. The experiment in a line: Antibacterial activity against Escherichia coli MTCC 443 assessed as inhibition of bacterial growth incubated overnight by serial dilution based spectrophotometer. It is filed as functional.
Test [13] relates to Escherichia coli. Put plainly: Ratio of MBC for antibacterial activity against Escherichia coli MTCC 443 to MIC for bactericidal activity against Escherichia coli MTCC 443. It is filed as functional.
The test system of test [14] is Bacillus subtilis. The experiment in a line: Antibacterial activity against Bacillus subtilis MTCC 736 assessed as inhibition of bacterial growth incubated overnight by serial dilution based spectrophotometer. It is filed as functional.
Test [15] deals with Staphylococcus aureus. Put plainly: Antibacterial activity against Staphylococcus aureus MTCC 902 assessed as inhibition of bacterial growth incubated overnight by serial dilution based spectrophotometer. It is filed as functional.
In test [16] the test system is Escherichia coli. Put plainly: Bactericidal activity against Escherichia coli MTCC 443 assessed as inhibition of bacterial growth incubated overnight. It is filed as functional.
Test [17] deals with Pseudomonas aeruginosa. The experiment in a line: Ratio of MBC for antibacterial activity against Pseudomonas aeruginosa MTCC 2453 to MIC for bactericidal activity against Pseudomonas aeruginosa MTCC 2453. It is filed as functional.
For test [18], the system named is Enterococcus faecalis. The experiment in a line: Ratio of MBC for antibacterial activity against Enterococcus faecalis MTCC 439 to MIC for bactericidal activity against Enterococcus faecalis MTCC 439. It is filed as functional.
Test [19] relates to Enterococcus faecalis. The experiment in a line: Bactericidal activity against Enterococcus faecalis MTCC 439 assessed as inhibition of bacterial growth incubated overnight. It is filed as functional.
Test [20] concerns Staphylococcus aureus. Put plainly: Bactericidal activity against Staphylococcus aureus MTCC 902 assessed as inhibition of bacterial growth incubated overnight. It is filed as functional.
The subject of test [21] is Bacillus subtilis. Put plainly: Ratio of MBC for antibacterial activity against Bacillus subtilis MTCC 736 to MIC for bactericidal activity against Bacillus subtilis MTCC 736. It is filed as functional.
Test [22] deals with Salmonella typhi. Put plainly: Ratio of MBC for antibacterial activity against Salmonella typhi to MIC for bactericidal activity against Salmonella typhi. It is filed as functional, Salmonella enterica subsp. enterica serovar Typhi.
Test [23] relates to Salmonella typhi. The experiment in a line: Bactericidal activity against Salmonella typhi assessed as inhibition of bacterial growth incubated overnight. It is filed as functional, Salmonella enterica subsp. enterica serovar Typhi. As to conditions: Salmonella enterica.

Converted amounts (≈) assume the structure as drawn.

On to `O=C1Nc2c(cccc2[N+](=O)[O-])/C1=N/CCNc1ccnc2cc(Cl)ccc12`, for which the zone of inhibition at 500 µg/mL in test [1] worked out at 8 mm; in [2], 11 mm.
As for `O=[N+]([O-])c1cccc(/C=N/CCNc2ccnc3cc(Cl)ccc23)c1`, the zone of inhibition at 500 µg/mL in test [3] turned out to be 9 mm; in [4] it was 6 mm; in test [1], 8 mm; in test [5] it was 8 mm; in [2], 6 mm; in [6], 9 mm.
Regarding `O=C1Nc2ccc(Br)cc2/C1=N/CCNc1ccnc2cc(Cl)ccc12`, the zone of inhibition at 500 µg/mL in [3] and in test [6] was 11 mm in each case.
For `Clc1ccc2c(NCC/N=C/c3ccccn3)ccnc2c1`, the MBC in test [7] is 512 µg/mL (≈ 1650 µM); in test [9] it was above 512 µg/mL; in test [16], 512 µg/mL (≈ 1650 µM); in test [19] it was 512 µg/mL (≈ 1650 µM); in test [20], above 512 µg/mL. Besides, the zone of inhibition at 500 µg/mL amounted to 11 mm in test [3]; 9 mm in [4]; 8 mm in test [1]; 8 mm in test [5]; 9 mm in test [2]; 7 mm in test [6]. Moreover, the MIC was 512 µg/mL (≈ 1650 µM) in test [8]; above 512 µg/mL in test [10]; 512 µg/mL (≈ 1650 µM) in [11]; 256 µg/mL (≈ 824 µM) in test [12]; 512 µg/mL (≈ 1650 µM) in test [14]; 512 µg/mL (≈ 1650 µM) in test [15]. Moreover, the Ratio in test [13] came out at 2; in test [17], 1; in test [18], 1.
For `Clc1ccc2c(NCC/N=C/c3ccc[nH]3)ccnc2c1`, the zone of inhibition at 500 µg/mL stood at 9 mm in [3]; 7 mm in [4]; 10 mm in test [1]; 8 mm in test [5]; 9 mm in [2]; 9 mm in test [6]. For the same compound, the MIC in test [8] was 512 µg/mL (≈ 1710 µM); in test [10], above 512 µg/mL; in test [11], above 512 µg/mL; in test [12], 256 µg/mL (≈ 857 µM); in [14] it was 512 µg/mL (≈ 1710 µM); in test [15], 512 µg/mL (≈ 1710 µM). The MBC was 512 µg/mL (≈ 1710 µM) in test [9], 512 µg/mL (≈ 1710 µM) in test [16], 512 µg/mL (≈ 1710 µM) in test [19] and above 512 µg/mL in test [20]. Besides, the Ratio worked out at 2 in [13], 1 in test [18] and 1 in test [21].
In the case of `CN(C)c1ccc(/C=N/CCNc2ccnc3cc(Cl)ccc23)cc1`, the zone of inhibition at 500 µg/mL worked out at 10 mm in test [3]; 7 mm in test [4]; 9 mm in [1]; 8 mm in test [5]; 8 mm in test [2]; 7 mm in test [6].
As for `FC(F)(F)c1ccc(/C=N/CCNc2ccnc3cc(Cl)ccc23)cc1`, the zone of inhibition at 500 µg/mL was 10 mm in [3]; 8 mm in test [4]; 7 mm in [1]; 8 mm in [5]; 7 mm in test [2]; 9 mm in test [6].
With `COc1ccc2c(c1)/C(=N/CCNc1ccnc3cc(Cl)ccc13)C(=O)N2`, the zone of inhibition at 500 µg/mL in [4] turned out to be 11 mm; in [5] it was 10 mm.
Regarding `Clc1ccc(/C=N/CCNc2ccnc3cc(Cl)ccc23)cc1`, the zone of inhibition at 500 µg/mL in test [3] came to 6 mm; in test [4], 7 mm; in [5], 6 mm; in test [2], 7 mm; in test [6] it was 6 mm.
Regarding `Clc1ccc2c(NCC/N=C/c3cccs3)ccnc2c1`, the zone of inhibition at 500 µg/mL was 9 mm in test [3]; 6 mm in [4]; 7 mm in test [1]; 8 mm in test [5]; 8 mm in test [2]; 8 mm in [6].
`O=C1Nc2cc(F)ccc2/C1=N/CCNc1ccnc2cc(Cl)ccc12`: the zone of inhibition at 500 µg/mL in test [1] and in [6] was 7 mm each time.
For the compound `COc1ccc(/C=N/CCNc2ccnc3cc(Cl)ccc23)cc1`, the zone of inhibition at 500 µg/mL amounted to 9 mm in [3]; 8 mm in [4]; 8 mm in test [1]; 8 mm in test [5]; 6 mm in test [2]; 9 mm in test [6].
On to `Cc1ccc(/C=N/CCNc2ccnc3cc(Cl)ccc23)cc1`, for which the zone of inhibition at 500 µg/mL turned out to be 8 mm in test [3]; 8 mm in test [4]; 6 mm in test [1]; 6 mm in test [5]; 6 mm in test [6].
With `O=C1Nc2ccccc2/C1=N/CCNc1ccnc2cc(Cl)ccc12`, the zone of inhibition at 500 µg/mL is 11 mm in [3] and 10 mm in [2].
As for `COc1ccc(/C=N/CCNc2ccnc3cc(Cl)ccc23)cc1OC`, the zone of inhibition at 500 µg/mL was 8 mm in [3]; 7 mm in test [4]; 8 mm in [1]; 7 mm in [5]; 7 mm in test [2]; 8 mm in test [6].
Turning to `CC(C)c1ccc(/C=N/CCNc2ccnc3cc(Cl)ccc23)cc1`, the MBC in test [7] was above 512 µg/mL; in test [16] it was 256 µg/mL (≈ 728 µM); in [20] it was above 512 µg/mL; in [23], 256 µg/mL (≈ 728 µM). Also, the zone of inhibition at 500 µg/mL in test [3] was 10 mm; in test [4] it was 12 mm; in test [1], 9 mm; in test [5], 7 mm; in [2], 8 mm; in test [6], 10 mm. The MIC was above 512 µg/mL in [8]; 256 µg/mL (≈ 728 µM) in test [10]; 256 µg/mL (≈ 728 µM) in test [11]; 256 µg/mL (≈ 728 µM) in test [12]; above 512 µg/mL in test [14]; 512 µg/mL (≈ 1460 µM) in test [15]. For the same compound, the Ratio in test [13] and in test [22] was 1 each time.
`Clc1ccc2c(NCC/N=C/c3ccc(Br)cc3)ccnc2c1`: the zone of inhibition at 500 µg/mL in test [5] is 8 mm.
As to `Oc1ccc(/C=N/CCNc2ccnc3cc(Cl)ccc23)cc1`, the zone of inhibition at 500 µg/mL in test [3] came out at 10 mm; in [4] it was 10 mm; in test [1], 9 mm; in test [5], 6 mm; in [2], 8 mm; in test [6], 8 mm.
As for `Clc1ccc2c(NCC/N=C/c3ccccc3Cl)ccnc2c1`, the zone of inhibition at 500 µg/mL was 8 mm in test [3]; 9 mm in [4]; 7 mm in [1]; 9 mm in [5]; 8 mm in [2]; 9 mm in test [6].
Regarding `Clc1ccc2c(NCC/N=C/c3ccccc3)ccnc2c1`, the zone of inhibition at 500 µg/mL in [3] amounted to 10 mm; in test [4], 8 mm; in test [1], 8 mm; in [5], 8 mm; in test [2], 7 mm; in test [6], 6 mm.
Turning to `Clc1ccc2c(NCC/N=C/c3c[nH]c4ccccc34)ccnc2c1`, the zone of inhibition at 500 µg/mL in [3] turned out to be 10 mm; in [4], 7 mm; in test [1], 8 mm; in test [5], 9 mm; in [2], 8 mm; in test [6] it was 9 mm.
With `Cc1cc(C)c2c(c1)/C(=N/CCNc1ccnc3cc(Cl)ccc13)C(=O)N2`, the results for the zone of inhibition at 500 µg/mL in [3] and in test [1] were 11 mm and 6 mm, respectively.
As to `COc1cc(/C=N/CCNc2ccnc3cc(Cl)ccc23)ccc1O`, the zone of inhibition at 500 µg/mL in test [3] was 9 mm; in test [4], 7 mm; in test [1], 6 mm; in test [5], 7 mm; in test [6], 6 mm.
As to `COc1ccc2c(c1)NC(=O)/C2=N\CCNc1ccnc2cc(Cl)ccc12`, the zone of inhibition at 500 µg/mL in [3] was found to be 16 mm; in test [6], 10 mm.

Usually MBC stands for the smallest concentration meeting the test's criterion for killing. Usually MIC stands for the smallest concentration in the dilution series that meets the test's criterion for growth inhibition.
